Reference: ChEMBL document CHEMBL1124229, “Spiro hydantoin aldose reductase inhibitors” (J Med Chem, 1988)

Experiments:
[1] = species on record: Rattus norvegicus; test: 50% reduction in sorbitol accumulation in isolated sciatic nerves incubated in the presence of high glucose concentration; type: functional; conditions: Sciatic nerve
[2] = species on record: Rattus norvegicus; test: Ability to cause 50% reduction in sorbitol levels of sciatic nerve of streptozotocinized rats was determined; value ranges from 250-500; type: functional
[3] = target: T1, Aldo-keto reductase family 1 member B1 (Bos taurus, UniProt P16116); test: In vitro inhibition of partially purified calf lens aldose reductase; value ranges from 10E-5 to 10E-6
[4] = species on record: Rattus norvegicus; test: Dose causing 50% reduction in sorbitol accumulation in sciatic nerves of streptozotocinized rats, (tid)
[5] = pKa in DMF/H2O was measured; type: physicochemical
[6] = species on record: Rattus norvegicus; test: Ability to cause 50% reduction in sorbitol levels of sciatic nerve of streptozotocinized rats was determined; type: functional; conditions: Rattus norvegicus, Sciatic nerve; read-out: ED50
[7] = species on record: Rattus norvegicus; test: Ability to cause 50% reduction in sorbitol levels of sciatic nerve of streptozotocinized rats was determined; value ranges from 10-25; type: functional
[8] = target: T1, Aldo-keto reductase family 1 member B1; test: Inhibition of partially purified calf lens aldose reductase; value ranges from 10E-4 to 10e-5 M
[9] = species on record: Rattus norvegicus; test: 50% reduction in sorbitol accumulation in isolated sciatic nerves incubated in the presence of high glucose concentration; value ranges from 10E-2 - 10E-3; type: functional; conditions: Sciatic nerve
[10] = species on record: Rattus norvegicus; test: Ability to cause 50% reduction in sorbitol levels of sciatic nerve of streptozotocinized rats was determined; value ranges from 25-100; type: functional
[11] = target: T1, Aldo-keto reductase family 1 member B1; test: In vitro inhibition of partially purified calf lens aldose reductase
[12] = target: T1, Aldo-keto reductase family 1 member B1; test: In vitro inhibitory activity towards partially purified calf lens aldose reductase; value ranges from 10E-6 - 10E-7
[13] = species on record: Rattus norvegicus; test: Ability to cause 50% reduction in sorbitol levels of sciatic nerve of streptozotocinized rats was determined; value ranges from 2.5-5; type: functional
[14] = target: Aldo-keto reductase family 1 member B1 (Homo sapiens, UniProt P15121); test: In vitro inhibitory activity towards partially purified human placenta aldose reductase
[15] = target: T1, Aldo-keto reductase family 1 member B1; test: In vitro inhibitory activity towards partially purified calf lens aldose reductase; value ranges from 10E-4- 10E-5
[16] = species on record: Rattus norvegicus; test: Ability to cause 50% reduction in sorbitol levels of sciatic nerve of streptozotocinized rats was determined; value ranges from 0.25-0.75; type: functional
[17] = species on record: Rattus norvegicus; test: Ability to cause 50% reduction in sorbitol levels of sciatic nerve of streptozotocinized rats was determined; value ranges from 1.5-5; type: functional
[18] = species on record: Rattus norvegicus; test: Ability to cause 50% reduction in sorbitol levels of sciatic nerve of streptozotocinized rats was determined; value ranges from 1.5-10; type: functional
[19] = species on record: Rattus norvegicus; test: Ability to cause 50% reduction in sorbitol levels of sciatic nerve of streptozotocinized rats was determined; value ranges from 5-10; type: functional
[20] = target: T1, Aldo-keto reductase family 1 member B1; test: In vitro inhibitory activity towards partially purified calf lens aldose reductase; value ranges from 10E-4 - 10E-6
[21] = target: Aldo-keto reductase family 1 member B1 (Rattus norvegicus, UniProt P07943); test: In vitro inhibitory activity towards partially purified rat lens aldose reductase

With `O=C(O)CN1C(=O)c2cccc3cccc(c23)C1=O` [ALRESTATIN] the IC50 [1] was 1000 µM, the ED50 [2] was 250 mg/kg and the IC50 [3] was 10 µM. It also gave an ED50 [4] of 0.001 M/kg and a pKa [5] of 4.8.
`O=C1NC(=O)C2(CCc3ccccc32)N1` (configuration not stated) showed an ED50 [6] of 5 mg/kg, an ED50 [7] of 5 mg/kg and an IC50 [8] of 100 µM.
`O=C(O)C1CCOc2ccc(Cl)cc21` (configuration not stated) showed an IC50 [9] of 10 mM, an ED50 [6] greater than 25 mg/kg and an IC50 [3] of 10 µM. For the same compound, the ED50 [4] was greater than 0.0001 M/kg and the pKa [5] was 4.9.
Compound `O=c1cnn(Cc2ccccc2)c(=O)[nH]1` has an ED50 [10] of 25 mg/kg and an IC50 [11] of 10 µM.
In the case of `O=C1NC(=O)C2(CCn3c(=O)ccc4cccc2c43)N1` (configuration not stated), the IC50 [12] is reported as 1000 nM and the ED50 [13] is reported as 2.5 mg/kg.
`CN1C(=O)N(C)[C@@]2(CCOc3ccc(F)cc32)C1=O` showed an ED50 [6] of less than 10 mg/kg and an IC50 [14] greater than 100 µM.
In the case of `COc1ccc2c(c1)CCCC21NC(=O)NC1=O` (configuration not stated), the ED50 [6] is reported as greater than 25 mg/kg and the IC50 [15] is reported as 100 µM.
`O=C1NC(=O)C2(CCCc3ccccc32)N1` (configuration not stated) gave an ED50 [7] of 10 mg/kg and an IC50 [8] of 100 µM.
In the case of `O=C1NC(=O)C2(CCOc3ccc(Cl)cc32)N1` (configuration not stated), the IC50 [11] is reported as 0.1 µM and the ED50 [16] is reported as 0.25 mg/kg.
Compound `COc1ccc(F)c2c1CCCC21NC(=O)NC1=O` (configuration not stated) has an IC50 [11] greater than 100 µM and an ED50 [16] greater than 25 mg/kg.
Compound `O=C1NC(=O)C(N2C(=O)c3cccc4cccc(c34)C2=O)N1` (configuration not stated) has an IC50 [1] of roughly 10 µM, a pKa [5] of 9.5 and an IC50 [14] of 8 µM.
`CN1C(=O)N[C@]2(CCOc3ccc(F)cc32)C1=O` gave an ED50 [6] of less than 10 mg/kg and an IC50 [14] greater than 100 µM.
`CN1C(=O)NC(=O)[C@]12CCOc1ccc(F)cc12` gave an ED50 [6] of less than 10 mg/kg and an IC50 [14] of 100 µM.
For `O=C1NC(=O)C2(CCOc3c2cc(Cl)c2ccccc32)N1` (configuration not stated), the IC50 [11] was less than 0.1 µM and the ED50 [17] was 1.5 mg/kg.
For `COc1ccc2c(c1)C1(CCC2)NC(=O)NC1=O` (configuration not stated), the ED50 [7] was 10 mg/kg and the IC50 [11] was 100 µM.
For `O=C1NC(=O)C2(CCOc3c2ccc2ncccc32)N1` (configuration not stated), the IC50 [12] was 1000 nM and the ED50 [18] was 1.5 mg/kg.
For `O=C1NC(=O)C2(CCSc3ccccc32)N1` (configuration not stated), the IC50 [11] was 10 µM and the ED50 [19] was 5 mg/kg.
For `O=C(O)C1CCOc2ccc(F)cc21` (configuration not stated), the ED50 [6] was greater than 25 mg/kg and the IC50 [20] was 100 µM.
`C[C@@H]1O[C@@H](Oc2c(-c3ccc(O)c(O)c3)oc3cc(O)cc(O)c3c2=O)[C@H](O)[C@H](O)[C@H]1O` [QUERCITRIN] gave an ED50 [6] greater than 40 mg/kg, an IC50 [3] of 10 µM and an IC50 [21] of roughly 100 nM.
